In ChEMBL document CHEMBL5505952, “Targeting SARS-CoV-2 entry processes: The promising potential and future of host-targeted small-molecule inhibitors” (Eur J Med Chem, 2024):

How the values were obtained:
[1] = molecular target: Spike glycoprotein/Angiotensin-converting enzyme 2 (Severe acute respiratory syndrome coronavirus 2, UniProt P0DTC2+Q9BYF1); test: Inhibition of SARS-CoV-2 spike protein RBD- human ACE2 interaction; assay type: protein assay
[2] = tested on: SARS-CoV-2; assay type: functional, organism-based; details: Severe acute respiratory syndrome coronavirus 2, Vero C1008
[3] = tested on: Respiratory syncytial virus; test: microbe, parasite or virus in culture; details: human respiratory syncytial virus, A2, HEp-2
[4] = tested on: SARS-CoV-2; assay type: functional, organism-based; details: Severe acute respiratory syndrome coronavirus 2, NRC-03-nhCoV, Vero C1008
[5] = tested on: SARS-CoV-2; test: microbe, parasite or virus in culture; details: Severe acute respiratory syndrome coronavirus 2, Huh-7
[6] = tested on: SARS-CoV-2; assay type: functional, organism-based; details: Severe acute respiratory syndrome coronavirus 2, Huh-7
[7] = tested on: SARS-CoV-2; test: microbe, parasite or virus in culture; details: Severe acute respiratory syndrome coronavirus 2, Vero C1008, 24 h
[8] = tested on: SARS-CoV-2; test: Antiviral activity against VSV-S pseudotyped SARS-CoV-2 infected in human Calu-3 cells assessed as inhibition of viral growth; assay type: functional, organism-based; details: Severe acute respiratory syndrome coronavirus 2, Calu-3
[9] = tested on: SARS-CoV-2; test: microbe, parasite or virus in culture; details: Severe acute respiratory syndrome coronavirus 2, B.1, VeroE6/TMPRSS2, 48 h
[10] = tested on: SARS-CoV-2; test: microbe, parasite or virus in culture; details: Severe acute respiratory syndrome coronavirus 2, A549-ACE2
[11] = molecular target: Procathepsin L (Homo sapiens, UniProt P07711); test: Inhibition of human Cathepsin L using Cbz-Phe-Arg-AMC as substrate measured for 10 mins by fluorescence based analysis
Sequence of Procathepsin L (P07711 whole entry): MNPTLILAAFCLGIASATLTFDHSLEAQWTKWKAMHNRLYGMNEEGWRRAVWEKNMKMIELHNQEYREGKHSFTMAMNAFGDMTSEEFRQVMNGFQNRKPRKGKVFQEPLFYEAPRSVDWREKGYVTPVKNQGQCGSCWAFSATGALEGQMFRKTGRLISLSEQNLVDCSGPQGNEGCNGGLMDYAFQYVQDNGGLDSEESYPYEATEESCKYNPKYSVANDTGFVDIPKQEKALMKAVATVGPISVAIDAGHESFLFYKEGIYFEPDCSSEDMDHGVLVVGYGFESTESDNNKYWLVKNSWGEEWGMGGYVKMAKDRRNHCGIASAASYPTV

[12] = tested on: SARS-CoV-2; test: Antiviral activity against SARS-CoV-2 WA1/2020 infected in human Calu-3 cells preincubated for 2 hrs followed by viral infection and measured after 48 hrs by microscopy analysis; assay type: functional, organism-based; details: Severe acute respiratory syndrome coronavirus 2, WA1/2020, Calu-3
[13] = tested on: SARS-CoV-2; assay type: functional, organism-based; details: Severe acute respiratory syndrome coronavirus 2, Vero C1008, 48 h
[14] = tested on: Dengue virus; assay type: functional, organism-based; details: Huh-7, 48 h
[15] = tested on: Ebolavirus; test: Antiviral activity against Ebola virus infected in human HeLa cells assessed as reduction in viral cytopathic effect; assay type: functional, organism-based; details: Orthoebolavirus
[16] = molecular target: T1, 1-phosphatidylinositol 3-phosphate 5-kinase (Homo sapiens, UniProt Q9Y2I7); test: Binding affinity to N-terminal His-tagged human PIKfyve expressed in Sf9 cells assessed as dissociation constant
T1 sequence (Q9Y2I7 whole entry): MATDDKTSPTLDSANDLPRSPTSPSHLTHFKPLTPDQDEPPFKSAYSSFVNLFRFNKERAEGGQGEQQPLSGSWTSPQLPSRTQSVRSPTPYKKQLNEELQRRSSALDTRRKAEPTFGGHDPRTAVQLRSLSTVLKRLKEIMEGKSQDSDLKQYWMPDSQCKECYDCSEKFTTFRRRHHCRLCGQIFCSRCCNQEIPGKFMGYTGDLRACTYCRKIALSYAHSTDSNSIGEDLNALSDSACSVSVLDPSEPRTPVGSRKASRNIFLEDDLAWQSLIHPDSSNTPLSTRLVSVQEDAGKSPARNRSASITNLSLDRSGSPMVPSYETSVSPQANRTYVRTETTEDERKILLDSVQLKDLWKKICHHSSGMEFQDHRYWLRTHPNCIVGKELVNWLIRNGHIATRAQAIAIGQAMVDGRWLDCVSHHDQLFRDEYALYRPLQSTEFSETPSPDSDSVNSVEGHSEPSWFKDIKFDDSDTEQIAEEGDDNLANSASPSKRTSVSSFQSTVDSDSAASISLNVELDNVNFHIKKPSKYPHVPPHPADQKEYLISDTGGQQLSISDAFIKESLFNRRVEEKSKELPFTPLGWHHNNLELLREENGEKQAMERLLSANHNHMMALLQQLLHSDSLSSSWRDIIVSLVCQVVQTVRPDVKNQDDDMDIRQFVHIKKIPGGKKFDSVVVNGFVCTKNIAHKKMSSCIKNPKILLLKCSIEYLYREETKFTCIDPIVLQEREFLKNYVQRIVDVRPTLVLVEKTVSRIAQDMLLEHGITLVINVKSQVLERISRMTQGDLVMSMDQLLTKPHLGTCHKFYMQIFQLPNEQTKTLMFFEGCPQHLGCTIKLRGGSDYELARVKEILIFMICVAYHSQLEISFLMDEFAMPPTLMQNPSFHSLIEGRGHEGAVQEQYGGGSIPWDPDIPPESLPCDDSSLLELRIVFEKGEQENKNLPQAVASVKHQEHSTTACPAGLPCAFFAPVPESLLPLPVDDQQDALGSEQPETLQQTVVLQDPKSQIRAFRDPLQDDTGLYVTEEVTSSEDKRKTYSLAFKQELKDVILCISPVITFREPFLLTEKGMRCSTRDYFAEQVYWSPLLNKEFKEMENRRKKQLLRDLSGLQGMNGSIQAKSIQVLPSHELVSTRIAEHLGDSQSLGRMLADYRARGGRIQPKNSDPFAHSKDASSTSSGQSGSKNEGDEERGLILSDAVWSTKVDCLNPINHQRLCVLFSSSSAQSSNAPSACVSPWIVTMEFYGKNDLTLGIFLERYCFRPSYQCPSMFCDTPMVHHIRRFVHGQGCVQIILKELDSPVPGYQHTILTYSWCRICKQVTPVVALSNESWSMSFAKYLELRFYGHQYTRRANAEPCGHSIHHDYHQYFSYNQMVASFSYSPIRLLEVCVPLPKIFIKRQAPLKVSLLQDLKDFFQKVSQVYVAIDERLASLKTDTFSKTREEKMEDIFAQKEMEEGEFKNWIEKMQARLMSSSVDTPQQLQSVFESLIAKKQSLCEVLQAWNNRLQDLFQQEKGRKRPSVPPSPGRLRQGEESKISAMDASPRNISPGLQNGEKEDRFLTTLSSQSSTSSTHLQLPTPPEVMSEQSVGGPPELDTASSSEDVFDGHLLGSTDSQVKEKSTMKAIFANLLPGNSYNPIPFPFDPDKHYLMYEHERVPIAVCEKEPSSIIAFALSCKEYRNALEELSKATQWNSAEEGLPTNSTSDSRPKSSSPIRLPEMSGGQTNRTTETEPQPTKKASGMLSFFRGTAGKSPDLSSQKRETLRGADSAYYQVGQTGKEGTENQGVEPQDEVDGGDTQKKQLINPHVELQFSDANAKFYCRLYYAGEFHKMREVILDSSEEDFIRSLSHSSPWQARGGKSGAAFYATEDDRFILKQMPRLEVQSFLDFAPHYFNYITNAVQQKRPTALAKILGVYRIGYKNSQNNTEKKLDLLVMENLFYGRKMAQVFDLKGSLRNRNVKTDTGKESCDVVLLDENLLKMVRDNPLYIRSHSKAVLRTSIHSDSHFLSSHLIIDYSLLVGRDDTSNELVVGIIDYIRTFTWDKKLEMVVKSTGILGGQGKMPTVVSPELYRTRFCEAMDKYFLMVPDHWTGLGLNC

[17] = tested on: SARS-CoV-2; assay type: functional, organism-based; details: Severe acute respiratory syndrome coronavirus 2, Vero C1008, 72 h
[18] = tested on: SARS-CoV-2; assay type: functional, organism-based; details: Severe acute respiratory syndrome coronavirus 2, NRC-03-nhCoV, Vero C1008, 72 h
[19] = molecular target: T1, 1-phosphatidylinositol 3-phosphate 5-kinase; test: Inhibition of PIKfyve (unknown origin)
[20] = tested on: SARS-CoV-2; assay type: functional, organism-based; details: Severe acute respiratory syndrome coronavirus 2, Vero C1008, 48 h; remark: listed apart in the source
[21] = molecular target: Replicase polyprotein 1ab (Severe acute respiratory syndrome coronavirus 2, UniProt P0DTD1); test: Inhibition of SARS-CoV-2 MPro expressed in Escherichia coli BL21 (DE3) using Dabcyl-KTSAVLQSGFRKME-Edans as substrate incubated for 1 hr by fluorescence based analysis

Sequence of Spike glycoprotein/Angiotensin-converting enzyme 2 (Q9BYF1 18-805 limits assumed, other chains not shown): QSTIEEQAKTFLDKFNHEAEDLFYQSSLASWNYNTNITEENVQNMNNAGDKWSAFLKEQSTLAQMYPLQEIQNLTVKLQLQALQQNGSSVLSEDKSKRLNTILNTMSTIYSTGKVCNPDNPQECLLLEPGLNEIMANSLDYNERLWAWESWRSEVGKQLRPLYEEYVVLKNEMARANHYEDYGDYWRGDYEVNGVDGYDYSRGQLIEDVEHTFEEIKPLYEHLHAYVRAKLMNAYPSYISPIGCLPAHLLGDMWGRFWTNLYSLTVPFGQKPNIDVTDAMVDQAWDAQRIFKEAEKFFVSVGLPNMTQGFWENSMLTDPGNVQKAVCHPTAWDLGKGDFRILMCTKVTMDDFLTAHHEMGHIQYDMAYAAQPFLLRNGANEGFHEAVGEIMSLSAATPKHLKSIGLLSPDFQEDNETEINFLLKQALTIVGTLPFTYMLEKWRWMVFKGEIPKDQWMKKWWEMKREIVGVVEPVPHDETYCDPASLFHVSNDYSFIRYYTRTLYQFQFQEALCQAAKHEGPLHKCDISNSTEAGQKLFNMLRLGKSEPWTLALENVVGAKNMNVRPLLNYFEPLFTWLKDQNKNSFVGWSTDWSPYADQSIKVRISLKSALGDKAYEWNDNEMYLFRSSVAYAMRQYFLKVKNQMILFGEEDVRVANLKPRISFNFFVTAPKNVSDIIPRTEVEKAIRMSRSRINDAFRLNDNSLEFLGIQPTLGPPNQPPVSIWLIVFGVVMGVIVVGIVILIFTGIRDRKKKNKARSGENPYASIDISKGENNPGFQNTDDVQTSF

Compound: CC(C)CCC[C@@H](C)[C@H]1CC[C@H]2[C@@H]3CC[C@H]4C[C@@H](O[C@@H]5O[C@H](COS(=O)(=O)[O-])[C@@H](O[C@H]6O[C@H](COS(=O)(=O)[O-])[C@@H](O[C@H]7O[C@H](COS(=O)(=O)[O-])[C@@H](O[C@H]8O[C@H](COS(=O)(=O)[O-])[C@@H](OS(=O)(=O)[O-])[C@H](OS(=O)(=O)[O-])[C@H]8OS(=O)(=O)[O-])[C@H](OS(=O)(=O)[O-])[C@H]7OS(=O)(=O)[O-])[C@H](OS(=O)(=O)[O-])[C@H]6OS(=O)(=O)[O-])[C@H](OS(=O)(=O)[O-])[C@H]5OS(=O)(=O)[O-])CC[C@]4(C)[C@H]3CC[C@]12C.[Na+].[Na+].[Na+].[Na+].[Na+].[Na+].[Na+].[Na+].[Na+].[Na+].[Na+].[Na+].[Na+]
- IC50 [1]: 4.27 µM
- EC50 [2]: 0.9 µg/mL
- IC50 [3]: 9.9 µg/mL

Compound: CCC[C@H](NC(=O)[C@@H]1[C@H]2CCC[C@H]2CN1C(=O)[C@@H](NC(=O)[C@@H](NC(=O)c1cnccn1)C1CCCCC1)C(C)(C)C)C(=O)C(=O)NC1CC1
- IC50 [4]: 11.6 µM

Compound: C[C@H](NC(=O)[C@H](Cc1ccccc1)NC(=O)OCc1ccccc1)C(=O)CF
- EC50 [5]: 701 µM
- EC50 [6]: 9.61 µM

Compound: CC(C)(C)OC(=O)N[C@@H](Cc1c[nH]c2ccccc12)C(=O)NNC(=O)OCC(=O)N1CCCc2ccccc21
- EC50 [7]: 10.9 µM

Compound: CC(=O)N[C@@H](CO)C(=O)N[C@@H](CCCCN)C(=O)N[C@@H](CC(C)C)C(=O)N[C@@H](CCCNC(=N)N)C(=O)c1nc2ccccc2s1
- EC50 [8]: 4.27 µM

Compound: CCCCCCCCCC(=O)N[C@@H](Cc1c[nH]c2ccccc12)C(=O)N[C@H](CC(N)=O)C(=O)N[C@@H](CC(=O)O)C(=O)N[C@@H]1C(=O)NCC(=O)N[C@@H](CCCN)C(=O)N[C@@H](CC(=O)O)C(=O)N[C@H](C)C(=O)N[C@@H](CC(=O)O)C(=O)NCC(=O)N[C@H](CO)C(=O)N[C@@H]([C@H](C)CC(=O)O)C(=O)N[C@@H](CC(=O)c2ccccc2N)C(=O)O[C@@H]1C
- EC50 [5]: 207 µM
- EC50 [9]: 226 µM
- EC50 [10]: 98.8 µM
- IC50 [11]: 7.87 µM

Compound: CC(=O)N[C@H]1CC(=O)NCCCC[C@@H](C(=O)N[C@@H](CCCNC(=N)N)C(=O)c2nc3ccccc3s2)NC(=O)[C@H](CC(C)C)NC1=O
- EC50 [8]: 0.197 µM
- IC50 [12]: 0.66 µM
- EC50 [13]: 0.104 µM

Compound: N#Cc1ccc(-c2cnc3[nH]cc(NC(=O)c4cccnc4)c3c2)cc1
- EC50 [14]: 8 µM
- EC50 [15]: > 10 µM

Compound: Ic1cccc(/C=N/Nc2nc(N3CCOCC3)nc(N(c3ccccc3)c3ccccc3)n2)c1
- Kd [16]: 0.032 µM

Compound: COc1ccc(C(=O)Nc2cccc(C(F)(F)F)c2)cc1Nc1nc(-c2cccnc2)c2[nH]ccc2n1
- EC50 [17]: 0.0093 µM

Compound: COc1ccccc1/C=N/NC(=N)c1nonc1NCNc1nonc1C(=N)N/N=C/c1ccccc1OC
- IC50 [18]: 0.019 µM

Compound: CN(C)Cc1ccc2[nH]c3c(c2c1)Cc1nc(N)ncc1CC3
- IC50 [19]: 0.0069 µM
- IC50 [20]: 0.0195 µM

Compound: CS(=O)(=O)N[C@@H](CCC(N)=O)C(=O)N[C@@H](Cc1ccccc1)C(=O)N[C@@H](CCCNC(=N)N)C(=O)c1nc2ccccc2s1
- EC50 [8]: 0.0028 µM

Compound: CC(=O)N[C@@H](CC(C)C)C(=O)N[C@@H](CC(C)C)C(=O)N[C@H](C=O)CCCNC(=N)N
- IC50 [21]: 127 µM
- EC50 [5]: 39.3 µM
- EC50 [6]: 10.6 µM

Compound: C1=Nc2ccccc2/C1=C\NNc1nc(Nc2ccccc2)nc(N2CCOCC2)n1
- Kd [16]: 0.00091 µM

Compound: O=C(N[C@H](/C=C/S(=O)(=O)c1ccccc1)CCc1ccccc1)[C@H](Cc1ccccc1)NC(=O)N1CCNCC1
- EC50 [7]: 0.035 µM

Compound: CC(=O)N[C@@H](CCC(N)=O)C(=O)N[C@@H](Cc1ccccc1)C(=O)N[C@@H](CCCNC(=N)N)C(=O)c1nc2ccccc2s1
- EC50 [8]: 0.00053 µM
- IC50 [12]: 0.052 µM

Compound: CC(=O)NCC(=O)N[C@@H](CCC(N)=O)C(=O)N[C@@H](Cc1ccccc1)C(=O)N[C@@H](CCCNC(=N)N)C(=O)c1nc2ccccc2s1
- EC50 [8]: 0.00043 µM
- IC50 [12]: 0.074 µM

Compound: CCC(O)(CC)c1ccc2[nH]c3c(c2c1)Cc1nc(N)ncc1CC3
- IC50 [19]: 0.0018 µM
- IC50 [20]: 0.0239 µM
